The record followed here is ChEMBL document CHEMBL1152559, “Antioxidant activity of 5,10-dihydroindeno[1,2-b]indoles containing substituents on dihydroindeno part” (Bioorg Med Chem, 2009).

Converted amounts (≈) assume the structure as drawn.

What all share (type): functional
Test [1] in a line: Antioxidant activity assessed as superoxide anion scavenging activity by NBT reduction assay.
A short description of test [2]: Antioxidant activity assessed as DMPD radical scavenging activity.
A short description of test [3]: Antioxidant activity assessed as ABTS radical scavenging activity.
Test [4] deals with Radical scavenging activity. Description: Antioxidant activity assessed as DPPH radical scavenging activity. In general terms: The DPPH test is a chemical assay of radical scavenging.
A short description of test [5]: Antioxidant activity assessed as hydrogen peroxide radical scavenging activity.

As for `COc1cc2c(c(OC)c1)-c1[nH]c3ccccc3c1C2`, the half-inhibitory concentration (IC50) in test [1] worked out at 20.43 µg/mL (≈ 77 µM); in test [2], 60.46 µg/mL (≈ 228 µM); in test [3], 23.04 µg/mL (≈ 86.8 µM); in test [4], 33.31 µg/mL (≈ 126 µM); in test [5], 3.35 µg/mL (≈ 12.6 µM).

`COc1ccc2c(c1)-c1[nH]c3ccccc3c1C2`: the half-maximal inhibitory concentration (IC50) in test [1] was determined as 19.86 µg/mL (≈ 84.4 µM); in test [2], 15.01 µg/mL (≈ 63.8 µM); in test [3], 54.15 µg/mL (≈ 230 µM); in test [4], 48.57 µg/mL (≈ 206 µM); in test [5], 7.02 µg/mL (≈ 29.8 µM).

As for `Oc1ccc(O)c2c1Cc1c-2[nH]c2ccccc12`, the IC50 in test [1] came out at 15.49 µg/mL (≈ 65.3 µM); in test [2], 22.2 µg/mL (≈ 93.6 µM); in test [3], 21.56 µg/mL (≈ 90.9 µM); in test [4] it was 11.92 µg/mL (≈ 50.2 µM); in test [5] it was 3.28 µg/mL (≈ 13.8 µM).

On to `Brc1ccc2c(c1)Cc1c-2[nH]c2ccccc12`, for which the IC50 in test [1] was 14.39 µg/mL (≈ 50.6 µM); in test [2], 15.34 µg/mL (≈ 54 µM); in test [3], 63.63 µg/mL (≈ 224 µM); in test [4], 64.12 µg/mL (≈ 226 µM); in test [5] it was 8.47 µg/mL (≈ 29.8 µM).

Turning to `Fc1ccc2c(c1)Cc1c-2[nH]c2ccccc12`, the half-maximal inhibitory concentration (IC50) in test [1] was 16.49 µg/mL (≈ 73.9 µM); in test [2], 31.47 µg/mL (≈ 141 µM); in test [3], 39.1 µg/mL (≈ 175 µM); in test [4], 49.73 µg/mL (≈ 223 µM); in test [5], 4.41 µg/mL (≈ 19.8 µM).

Turning to `Oc1ccc2c(c1)Cc1c-2[nH]c2ccccc12`, the IC50 in test [1] stood at 26.61 µg/mL (≈ 120 µM); in test [2] it was 130.07 µg/mL (≈ 588 µM); in test [3], 39.85 µg/mL (≈ 180 µM); in test [4] it was 11.67 µg/mL (≈ 52.7 µM); in test [5], 4.47 µg/mL (≈ 20.2 µM).

As for `COc1ccc(OC)c2c1Cc1c-2[nH]c2ccccc12`, the IC50 in test [1] turned out to be 15.75 µg/mL (≈ 59.4 µM); in test [2], 24.87 µg/mL (≈ 93.7 µM); in test [3] it was 32.76 µg/mL (≈ 123 µM); in test [4], 51.67 µg/mL (≈ 195 µM); in test [5], 3.92 µg/mL (≈ 14.8 µM).

Consider `Oc1cc2c(cc1O)-c1[nH]c3ccccc3c1C2`, for which the IC50 in test [1] came out at 14.1 µg/mL (≈ 59.4 µM); in test [2] it was 76.58 µg/mL (≈ 323 µM); in test [3], 45.98 µg/mL (≈ 194 µM); in test [4], 29.44 µg/mL (≈ 124 µM); in test [5] it was 5.09 µg/mL (≈ 21.5 µM).

Turning to `Clc1ccc2c(c1)Cc1c-2[nH]c2ccccc12`, the IC50 is 16.2 µg/mL (≈ 67.6 µM) in test [1]; 57.89 µg/mL (≈ 242 µM) in test [2]; 82.87 µg/mL (≈ 346 µM) in test [3]; 44.18 µg/mL (≈ 184 µM) in test [4]; 30.52 µg/mL (≈ 127 µM) in test [5].

On to `c1ccc2c(c1)Cc1c-2[nH]c2ccccc12`, for which the IC50 in test [1] was 12.64 µg/mL (≈ 61.6 µM); in test [2], 32.92 µg/mL (≈ 160 µM); in test [3], 58.66 µg/mL (≈ 286 µM); in test [4], 65.91 µg/mL (≈ 321 µM); in test [5] it was 7.14 µg/mL (≈ 34.8 µM).

Turning to `Oc1cccc2c1-c1[nH]c3ccccc3c1C2`, the IC50 in test [1] stood at 21.69 µg/mL (≈ 98 µM); in test [2], 127.21 µg/mL (≈ 575 µM); in test [3] it was 9.72 µg/mL (≈ 43.9 µM); in test [4] it was 10.12 µg/mL (≈ 45.7 µM); in test [5] it was 2.8 µg/mL (≈ 12.7 µM).

For the compound `Oc1ccc2c(c1O)Cc1c-2[nH]c2ccccc12`, the IC50 in test [1] amounted to 31.14 µg/mL (≈ 131 µM); in test [2], 34.79 µg/mL (≈ 147 µM); in test [3], 79.02 µg/mL (≈ 333 µM); in test [4], 9.47 µg/mL (≈ 39.9 µM); in test [5], 3.16 µg/mL (≈ 13.3 µM).

In the case of `COc1cccc2c1Cc1c-2[nH]c2ccccc12`, the IC50 in test [1] was 21.99 µg/mL (≈ 93.5 µM); in test [2], 28.5 µg/mL (≈ 121 µM); in test [3], 29.91 µg/mL (≈ 127 µM); in test [4], 38.16 µg/mL (≈ 162 µM); in test [5], 3.74 µg/mL (≈ 15.9 µM).

For `Oc1cc(O)c2c(c1)Cc1c-2[nH]c2ccccc12`, the IC50 in test [1] is 11.46 µg/mL (≈ 48.3 µM); in test [2], 39.38 µg/mL (≈ 166 µM); in test [3], 49.04 µg/mL (≈ 207 µM); in test [4] it was 72.89 µg/mL (≈ 307 µM); in test [5] it was 5.47 µg/mL (≈ 23.1 µM).

Turning to `COc1ccc2c(c1OC)Cc1c-2[nH]c2ccccc12`, the IC50 in test [1] was 12.42 µg/mL (≈ 46.8 µM); in test [2], 46.44 µg/mL (≈ 175 µM); in test [3] it was 81.39 µg/mL (≈ 307 µM); in test [4] it was 33.16 µg/mL (≈ 125 µM); in test [5], 25.43 µg/mL (≈ 95.8 µM).

Consider `c1ccc2c3c([nH]c2c1)-c1cc2c(cc1C3)OCO2`, for which the 50% inhibitory concentration (IC50) worked out at 16.11 µg/mL (≈ 64.6 µM) in test [1]; 18.62 µg/mL (≈ 74.7 µM) in test [2]; 23.67 µg/mL (≈ 95 µM) in test [3]; 13.07 µg/mL (≈ 52.4 µM) in test [4]; 3.39 µg/mL (≈ 13.6 µM) in test [5].

In the case of `Oc1cccc2c1Cc1c-2[nH]c2ccccc12`, the IC50 in test [1] was found to be 18.67 µg/mL (≈ 84.4 µM); in test [2], 26.75 µg/mL (≈ 121 µM); in test [3], 64.69 µg/mL (≈ 292 µM); in test [4], 36.27 µg/mL (≈ 164 µM); in test [5], 8.82 µg/mL (≈ 39.9 µM).

In the case of `COc1ccc2c(c1)Cc1c-2[nH]c2ccccc12`, the IC50 in test [1] came out at 24.37 µg/mL (≈ 104 µM); in test [2], 17.45 µg/mL (≈ 74.2 µM); in test [3] it was 68.03 µg/mL (≈ 289 µM); in test [4], 37.79 µg/mL (≈ 161 µM); in test [5] it was 9.08 µg/mL (≈ 38.6 µM).

For `COc1cc2c(cc1OC)-c1[nH]c3ccccc3c1C2`, the IC50 in test [1] worked out at 17.09 µg/mL (≈ 64.4 µM); in test [2], 52.83 µg/mL (≈ 199 µM); in test [3] it was 73.99 µg/mL (≈ 279 µM); in test [4] it was 25.76 µg/mL (≈ 97.1 µM); in test [5], 13.86 µg/mL (≈ 52.2 µM).

As for `Oc1ccc2c(c1)-c1[nH]c3ccccc3c1C2`, the IC50 in test [1] was 18.55 µg/mL (≈ 83.8 µM); in test [2], 14.76 µg/mL (≈ 66.7 µM); in test [3], 20.71 µg/mL (≈ 93.6 µM); in test [4] it was 27.4 µg/mL (≈ 124 µM); in test [5], 3.25 µg/mL (≈ 14.7 µM).

For the compound `Cc1c(C)c2c(c(C)c1O)CC[C@@](C)(CCC[C@H](C)CCC[C@H](C)CCCC(C)C)O2` [ALPHA-TOCOPHEROL], the IC50 is 33.17 µg/mL (≈ 77 µM) in test [1], 73.15 µg/mL (≈ 170 µM) in test [3], 13.41 µg/mL (≈ 31.1 µM) in test [4] and 11.82 µg/mL (≈ 27.4 µM) in test [5].

For the compound `COc1ccc(O)c(C(C)(C)C)c1.COc1ccc(O)cc1C(C)(C)C` [BUTYLATED HYDROXYANISOLE], the IC50 in test [1] stood at 68.82 µg/mL; in test [2] it was 32.92 µg/mL; in test [3], 4.65 µg/mL; in test [4], 16.67 µg/mL; in test [5], 2.65 µg/mL.

Take `Cc1cc(C(C)(C)C)c(O)c(C(C)(C)C)c1` [BUTYLATED HYDROXYTOLUENE]: the half-inhibitory concentration (IC50) in test [1] amounted to 49.48 µg/mL (≈ 225 µM); in test [2], 17.45 µg/mL (≈ 79.2 µM); in test [3], 52.81 µg/mL (≈ 240 µM); in test [4], 42.91 µg/mL (≈ 195 µM); in test [5] it was 5.97 µg/mL (≈ 27.1 µM).

Take `Cc1c(C)c2c(c(C)c1O)CCC(C)(C(=O)O)O2` (stereo not drawn) [TROLOX]: the IC50 in test [2] was 195.11 µg/mL (≈ 780 µM); in test [3], 62.32 µg/mL (≈ 249 µM); in test [4] it was 10.03 µg/mL (≈ 40.1 µM); in test [5] it was 8.06 µg/mL (≈ 32.2 µM).

For orientation: IC50 means the concentration that inhibits the measured activity by half.
